In patent US20040224980A1, “Substituted 1H-quinolin-2-one compounds” (priority 2001, published 2004):

Test system: phenylquinone-induced writhing reactions
Assay: phenylquinone-induced writhing in mice
Assay type: in vivo
Settings: male NMRI mice, 10 mg/kg i.v., phenylquinone i.p. 10 minutes after compound, writhing counted 5-20 minutes after phenylquinone
Description: The investigation into analgesic efficacy was performed by phenylquinone-induced writhing in mice (modified after: I. C. Hendershot, J. Forsaith, J. Pharmacol. Exp. There. 125, 237-240 (1959)). The corresponding literature description is hereby introduced as a reference and is deemed to be part of the disclosure.
Male NMRI mice weighing from 25 to 30 g were used for this purpose. Groups of 10 animals per substance dose received, 10 minutes after intravenous administration of the compounds tested, 0.3 ml/mouse of a 0.02% aqueous solution of phenylquinone (phenylbenzoquinone, Sigma, Deisenhofen; solution prepared with addition of 5% of ethanol and stored in a water bath at 45° C.) administered intraperitoneally. The animals were placed individually in observation cages. A push button counter was used to record the number of pain-induced stretching movements (writhing reactions=straightening of the torso with stretching of the rear extremities) for 5-20 minutes after phenylquinone administration. The control was provided by animals which received only physiological common salt solution.
The compounds were tested at the standard dosage of 10 mg/kg. Inhibition of the writhing reactions by a substance was calculated according to the following formula: [formula]
The in-depth investigation into analgesic efficacy was performed using phenylquinbne-induced writhing in mice, as described above.

In the case of `COc1cccc(C2(O)CCC(NC(=O)Cc3c(O)c4ccc(Cl)cc4[nH]c3=O)CC2CN(C)C)c1` (centres unmarked) [Example 1, 2′-(7-Chloro-4-hydroxy-2-oxo-1,2-dihydroquinolin-3-yl)-N-[3″-(N,N-dimethylaminomethyl)-4″-hydroxy-4″-(m-methoxyphenyl)cyclohexyl]acetamide], the “% inhibition of writhing reactions” value is reported as 60%.

In the case of `COc1cccc(C2(O)CCC(NC(=O)Cc3c(OC)c4ccc(Cl)cc4[nH]c3=O)CC2CN(C)C)c1` (centres unmarked) [Example 2, 2′-(7-Chloro-4-methoxy-2-oxo-1,2-dihydroquinolin-3-yl)-N-[3″-(N,N-dimethylaminomethyl)-4″-hydroxy-4″-(m-methoxyphenyl)cyclohexyl]acetamide], the “% inhibition of writhing reactions” value is reported as 63%.
